According to article doi:10.1101/2024.08.13.607785v1 (biorxiv, 2024):

Key:
Design in all cases: species or system mixed lysate of K562, MV4-11, THP-1, NCI-H1155
[1] = target: T1, Dual specificity mitogen-activated protein kinase kinase 3 ; MAP2K3 ; P46734 (Homo sapiens, UniProt P46734); conditions: DDA-MS residual binding; binder
T1 sequence (P46734 1-347): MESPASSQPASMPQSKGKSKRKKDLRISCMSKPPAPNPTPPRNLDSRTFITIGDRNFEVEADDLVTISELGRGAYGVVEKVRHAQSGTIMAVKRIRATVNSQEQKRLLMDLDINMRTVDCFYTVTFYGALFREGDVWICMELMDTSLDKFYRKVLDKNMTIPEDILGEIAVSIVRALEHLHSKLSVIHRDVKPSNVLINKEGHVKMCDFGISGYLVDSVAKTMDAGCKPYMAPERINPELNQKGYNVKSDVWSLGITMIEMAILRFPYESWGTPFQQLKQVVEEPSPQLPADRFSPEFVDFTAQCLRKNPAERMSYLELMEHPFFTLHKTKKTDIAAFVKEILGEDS

[2] = target: Tyrosine-protein kinase CSK ; CSK ; P41240 (Homo sapiens, UniProt P41240); conditions: binder
[3] = target: T2, Tyrosine-protein kinase Fyn ; FYN ; P06241 (Homo sapiens, UniProt P06241); conditions: DDA-MS residual binding; binder
[4] = target: T1, Dual specificity mitogen-activated protein kinase kinase 3 ; MAP2K3 ; P46734; conditions: DIA-MS residual binding; binder
[5] = target: Serine/threonine-protein kinase SIK2 ; SIK2 ; Q9H0K1 (Homo sapiens, UniProt Q9H0K1); conditions: DIA-MS residual binding; binder
[6] = target: Mitogen-activated protein kinase 14 ; MAPK14-2 ; Q16539-2 (Homo sapiens, UniProt Q16539); conditions: DIA-MS residual binding; binder
[7] = target: T2, Tyrosine-protein kinase Fyn ; FYN ; P06241; conditions: DIA-MS residual binding; binder
[8] = target: Proto-oncogene tyrosine-protein kinase receptor Ret ; RET ; P07949 (Homo sapiens, UniProt P07949); conditions: binder
[9] = target: Mitogen-activated protein kinase 14 ; MAPK14 ; Q16539 (Homo sapiens, UniProt Q16539); conditions: DIA-MS residual binding; binder
[10] = target: MAP kinase-interacting serine/threonine-protein kinase 1 ; MKNK1 ; Q9BUB5 (Homo sapiens, UniProt Q9BUB5); conditions: binder
[11] = target: Tyrosine-protein kinase HCK ; HCK ; P08631 (Homo sapiens, UniProt P08631); conditions: DIA-MS residual binding; binder
[12] = target: Isoform 6 of Tyrosine-protein kinase ABL2 ; ABL2-6 ; P42684-6 (Homo sapiens, UniProt P42684); conditions: DIA-MS residual binding; binder
[13] = target: Tyrosine-protein kinase Yes ; YES1 ; P07947 (Homo sapiens, UniProt P07947); conditions: binder
[14] = target: Tyrosine-protein kinase Fyn ; FYN-2 ; P06241 (Homo sapiens, UniProt P06241); conditions: DIA-MS residual binding; binder
[15] = target: Mitogen-activated protein kinase kinase kinase kinase 5 ; MAP4K5 ; Q9Y4K4 (Homo sapiens, UniProt Q9Y4K4); conditions: DIA-MS residual binding; binder
[16] = target: LIM domain kinase 1 ; LIMK1 ; P53667 (Homo sapiens, UniProt P53667); conditions: DIA-MS residual binding; binder

T2 sequence (P06241 whole entry): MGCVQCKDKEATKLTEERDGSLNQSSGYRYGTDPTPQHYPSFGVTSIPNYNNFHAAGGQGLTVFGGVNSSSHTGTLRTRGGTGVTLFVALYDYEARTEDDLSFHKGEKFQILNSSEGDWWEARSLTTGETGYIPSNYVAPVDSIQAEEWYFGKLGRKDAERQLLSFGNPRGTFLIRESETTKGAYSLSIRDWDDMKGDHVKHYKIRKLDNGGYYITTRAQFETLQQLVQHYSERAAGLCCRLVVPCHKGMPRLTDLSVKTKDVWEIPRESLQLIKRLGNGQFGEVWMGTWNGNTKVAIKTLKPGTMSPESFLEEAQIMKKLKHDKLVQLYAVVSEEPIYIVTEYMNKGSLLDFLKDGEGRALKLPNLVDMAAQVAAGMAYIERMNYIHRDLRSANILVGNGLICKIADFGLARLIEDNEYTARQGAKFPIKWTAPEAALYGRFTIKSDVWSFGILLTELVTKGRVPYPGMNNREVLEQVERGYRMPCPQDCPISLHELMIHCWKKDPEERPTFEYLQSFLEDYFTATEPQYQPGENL
Chain of Proto-oncogene tyrosine-protein kinase receptor Ret ; RET ; P07949 (P07949 whole entry): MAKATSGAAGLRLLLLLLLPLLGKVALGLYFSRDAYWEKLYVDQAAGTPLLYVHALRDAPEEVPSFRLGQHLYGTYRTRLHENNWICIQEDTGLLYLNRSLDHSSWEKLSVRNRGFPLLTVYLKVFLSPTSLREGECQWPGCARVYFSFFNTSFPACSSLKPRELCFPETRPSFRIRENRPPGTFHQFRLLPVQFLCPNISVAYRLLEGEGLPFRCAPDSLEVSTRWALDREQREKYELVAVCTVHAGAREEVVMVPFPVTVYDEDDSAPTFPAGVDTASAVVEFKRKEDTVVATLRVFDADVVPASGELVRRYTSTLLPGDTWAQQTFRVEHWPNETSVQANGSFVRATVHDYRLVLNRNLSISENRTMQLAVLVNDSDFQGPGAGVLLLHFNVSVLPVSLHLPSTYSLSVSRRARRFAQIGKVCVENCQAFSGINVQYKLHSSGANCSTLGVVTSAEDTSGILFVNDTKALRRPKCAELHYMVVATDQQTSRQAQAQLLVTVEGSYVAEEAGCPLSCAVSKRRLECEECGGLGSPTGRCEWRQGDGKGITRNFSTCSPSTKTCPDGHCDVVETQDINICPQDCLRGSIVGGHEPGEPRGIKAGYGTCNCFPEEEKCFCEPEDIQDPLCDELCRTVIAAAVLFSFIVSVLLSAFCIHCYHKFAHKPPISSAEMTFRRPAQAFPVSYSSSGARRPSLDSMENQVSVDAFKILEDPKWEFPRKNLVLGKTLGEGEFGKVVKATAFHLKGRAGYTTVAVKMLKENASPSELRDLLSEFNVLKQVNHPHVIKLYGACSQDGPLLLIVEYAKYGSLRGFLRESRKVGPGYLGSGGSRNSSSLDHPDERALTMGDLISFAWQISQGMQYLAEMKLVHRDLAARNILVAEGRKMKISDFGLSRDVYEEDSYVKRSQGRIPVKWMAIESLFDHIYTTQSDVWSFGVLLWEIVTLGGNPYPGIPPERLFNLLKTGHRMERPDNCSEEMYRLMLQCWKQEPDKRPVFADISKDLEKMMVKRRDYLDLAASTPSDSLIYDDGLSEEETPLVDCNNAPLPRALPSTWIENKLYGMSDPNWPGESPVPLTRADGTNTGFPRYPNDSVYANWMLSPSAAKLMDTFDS
Chain of Tyrosine-protein kinase Fyn ; FYN-2 ; P06241 (P06241 whole entry): as the sequence (P06241 whole entry) above
Chain of Tyrosine-protein kinase Yes ; YES1 ; P07947 (P07947 whole entry): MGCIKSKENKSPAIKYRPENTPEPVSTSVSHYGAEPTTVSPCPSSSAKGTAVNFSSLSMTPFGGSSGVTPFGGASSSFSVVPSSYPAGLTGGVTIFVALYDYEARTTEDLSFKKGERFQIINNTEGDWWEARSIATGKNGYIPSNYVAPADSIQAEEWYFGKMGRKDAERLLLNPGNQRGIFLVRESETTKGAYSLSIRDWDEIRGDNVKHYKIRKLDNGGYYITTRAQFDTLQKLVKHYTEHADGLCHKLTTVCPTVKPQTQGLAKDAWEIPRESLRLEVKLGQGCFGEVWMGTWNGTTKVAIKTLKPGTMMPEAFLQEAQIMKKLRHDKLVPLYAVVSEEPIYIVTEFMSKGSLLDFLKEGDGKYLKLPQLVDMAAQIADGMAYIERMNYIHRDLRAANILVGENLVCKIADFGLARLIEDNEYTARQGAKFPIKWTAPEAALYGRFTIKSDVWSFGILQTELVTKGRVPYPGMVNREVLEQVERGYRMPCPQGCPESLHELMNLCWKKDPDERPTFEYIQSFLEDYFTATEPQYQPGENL
Chain of Serine/threonine-protein kinase SIK2 ; SIK2 ; Q9H0K1 (Q9H0K1 whole entry, one chain of several): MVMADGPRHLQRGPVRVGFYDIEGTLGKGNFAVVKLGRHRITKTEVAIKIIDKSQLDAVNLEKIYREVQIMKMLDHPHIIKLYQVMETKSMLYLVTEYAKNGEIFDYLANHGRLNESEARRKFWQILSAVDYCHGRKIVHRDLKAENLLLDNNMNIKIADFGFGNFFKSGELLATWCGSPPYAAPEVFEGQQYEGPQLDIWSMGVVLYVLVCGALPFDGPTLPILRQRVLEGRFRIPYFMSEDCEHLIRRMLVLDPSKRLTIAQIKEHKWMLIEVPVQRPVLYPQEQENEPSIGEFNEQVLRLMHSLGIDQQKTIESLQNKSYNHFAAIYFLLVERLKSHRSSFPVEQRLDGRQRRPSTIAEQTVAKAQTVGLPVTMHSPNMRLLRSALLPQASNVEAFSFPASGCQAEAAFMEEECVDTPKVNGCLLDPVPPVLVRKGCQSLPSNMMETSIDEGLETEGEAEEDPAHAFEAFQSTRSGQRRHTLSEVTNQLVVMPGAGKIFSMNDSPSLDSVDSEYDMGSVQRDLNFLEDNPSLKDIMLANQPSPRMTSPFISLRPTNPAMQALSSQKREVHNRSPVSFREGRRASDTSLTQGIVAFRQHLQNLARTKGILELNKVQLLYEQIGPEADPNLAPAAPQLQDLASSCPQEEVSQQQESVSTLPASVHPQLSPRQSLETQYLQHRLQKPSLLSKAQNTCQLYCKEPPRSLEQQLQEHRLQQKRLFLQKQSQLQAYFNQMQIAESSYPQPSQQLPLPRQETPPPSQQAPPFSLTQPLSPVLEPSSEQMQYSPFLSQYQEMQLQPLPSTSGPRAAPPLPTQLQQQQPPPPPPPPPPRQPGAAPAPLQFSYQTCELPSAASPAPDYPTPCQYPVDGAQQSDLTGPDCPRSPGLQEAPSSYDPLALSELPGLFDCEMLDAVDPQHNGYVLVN
Chain of Mitogen-activated protein kinase 14 ; MAPK14-2 ; Q16539-2 (Q16539 whole entry): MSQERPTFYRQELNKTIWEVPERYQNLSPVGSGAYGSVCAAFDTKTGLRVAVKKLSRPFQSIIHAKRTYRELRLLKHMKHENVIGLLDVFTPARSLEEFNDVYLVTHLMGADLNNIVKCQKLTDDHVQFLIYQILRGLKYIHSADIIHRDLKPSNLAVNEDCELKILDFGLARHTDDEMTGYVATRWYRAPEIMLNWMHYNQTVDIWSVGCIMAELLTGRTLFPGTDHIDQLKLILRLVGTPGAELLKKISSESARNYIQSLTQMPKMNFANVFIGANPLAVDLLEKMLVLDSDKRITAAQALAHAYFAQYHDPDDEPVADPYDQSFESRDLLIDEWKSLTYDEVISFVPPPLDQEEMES
Chain of Mitogen-activated protein kinase 14 ; MAPK14 ; Q16539 (Q16539 whole entry): as above
Chain of MAP kinase-interacting serine/threonine-protein kinase 1 ; MKNK1 ; Q9BUB5 (Q9BUB5 whole entry, one chain of several): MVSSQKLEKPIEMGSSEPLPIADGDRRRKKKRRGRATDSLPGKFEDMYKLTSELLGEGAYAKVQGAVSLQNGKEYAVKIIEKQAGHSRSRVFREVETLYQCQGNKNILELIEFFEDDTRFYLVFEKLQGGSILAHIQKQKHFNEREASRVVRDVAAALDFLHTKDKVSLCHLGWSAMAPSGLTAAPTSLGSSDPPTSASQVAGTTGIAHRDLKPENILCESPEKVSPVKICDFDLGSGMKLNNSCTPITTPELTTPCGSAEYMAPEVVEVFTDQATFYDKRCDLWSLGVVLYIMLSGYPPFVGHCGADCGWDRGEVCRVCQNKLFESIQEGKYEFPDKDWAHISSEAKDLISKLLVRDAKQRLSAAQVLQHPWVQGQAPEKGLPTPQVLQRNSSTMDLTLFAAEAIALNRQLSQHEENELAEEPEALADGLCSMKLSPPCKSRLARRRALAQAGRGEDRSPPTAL
Chain of Tyrosine-protein kinase CSK ; CSK ; P41240 (P41240 whole entry): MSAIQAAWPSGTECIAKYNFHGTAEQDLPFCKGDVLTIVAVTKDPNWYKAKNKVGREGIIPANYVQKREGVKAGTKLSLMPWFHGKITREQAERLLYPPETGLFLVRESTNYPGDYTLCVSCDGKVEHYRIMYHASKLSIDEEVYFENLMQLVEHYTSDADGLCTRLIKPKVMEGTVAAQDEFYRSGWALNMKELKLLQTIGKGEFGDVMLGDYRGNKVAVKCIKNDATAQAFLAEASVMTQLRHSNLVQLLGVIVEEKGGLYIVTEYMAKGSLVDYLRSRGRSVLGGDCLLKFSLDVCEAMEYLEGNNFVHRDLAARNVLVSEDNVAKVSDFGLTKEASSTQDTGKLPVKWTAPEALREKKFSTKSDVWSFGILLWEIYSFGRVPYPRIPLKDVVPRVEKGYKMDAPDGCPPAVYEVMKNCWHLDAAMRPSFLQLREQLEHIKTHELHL

## Cc1nc(Nc2ncc(C(=O)Nc3c(C)cccc3Cl)s2)cc(N2CCN(CCO)CC2)n1 [dasatinib]
[1]
  DDA-MS / % Intensity (30 µM/DMSO): 35.23%
[2]
  DDA-MS / % Intensity (30 µM/DMSO): 0.3688%
[3]
  DDA-MS / % Intensity (30 µM/DMSO): 1.698%
[4]
  DIA-MS / % Intensity (30 µM/DMSO): 55.82%
[5]
  DIA-MS / % Intensity (30 µM/DMSO): 2.882%
[6]
  DIA-MS / % Intensity (30 µM/DMSO): 35.75%
[7]
  DIA-MS / % Intensity (30 µM/DMSO): 1.145%
[8]
  DIA-MS / % Intensity (30 µM/DMSO): 41.37%
[9]
  DIA-MS / % Intensity (30 µM/DMSO): 32.28%
[10]
  DIA-MS / % Intensity (30 µM/DMSO): 27.84%
[11]
  DIA-MS / % Intensity (30 µM/DMSO): 2.086%
[12]
  DIA-MS / % Intensity (30 µM/DMSO): 0.2688%
[13]
  DIA-MS / % Intensity (30 µM/DMSO): 2.565%
[14]
  DIA-MS / % Intensity (30 µM/DMSO): 2.543%
[15]
  DIA-MS / % Intensity (30 µM/DMSO): 28.36%
[16]
  DIA-MS / % Intensity (30 µM/DMSO): 33.27%
